Test results from patent US20210045385A1, “PYRIDAZINONE-SUBSTITUTED KETOXIMES AS HERBICIDES” (FMC Corporation, priority 2018, published 2021).

Tests used:
Assay type in all cases: in vivo
[1] = test system: sedge umbrella (small-flower umbrella sedge, Cyperus difformis); assay: Test D flooded paddy test, visual plant response rating; conditions: 250 g ai/ha, scale 0 to 100 (0 no effect, 100 complete control), 13 to 15 d
Outline: (§1)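 Plants were grown to the 2-leaf stage, pots flooded to 3 cm above soil, and compound applied directly into the paddy water, with the depth held throughout. After 13 to 15 d in a greenhouse, response was rated visually against untreated controls on a 0–100 scale (0 no effect, 100 complete control).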

[2] = test system: barnyardgrass (Echinochloa crus-galli); assay: as above; conditions: 250 g ai/ha, scale 0 to 100 (0 no effect, 100 complete control), 13 to 15 d
Outline: as §1

[3] = test system: duck salad (Heteranthera limosa); assay: as above; conditions: 250 g ai/ha, scale 0 to 100 (0 no effect, 100 complete control), 13 to 15 d
Outline: as §1

[4] = test system: rice (Oryza sativa); assay: as above; conditions: 250 g ai/ha, scale 0 to 100 (0 no effect, 100 complete control), 13 to 15 d
Outline: as §1

[5] = test system: barnyardgrass (Echinochloa crus-galli); assay: Test C postemergence, visual plant response rating
Outline: (§2)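 Compounds in a non-phytotoxic solvent with surfactant were applied as a directed soil spray preemergence or to 2–10 cm, one- to two-leaf plants postemergence, in loam–sand soil. After about 10 d in a greenhouse, injury was visually rated against untreated controls on a 0–100 scale (100 = complete control).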

[6] = test system: galium (catchweed bedstraw, Galium aparine); assay: Test C postemergence, visual plant response rating
Outline: as §2

[7] = test system: pigweed (Amaranthus retroflexus); assay: Test C postemergence, visual plant response rating
Outline: as §2

[8] = test system: blackgrass (Alopecurus myosuroides); assay: Test C postemergence, visual plant response rating
Outline: as §2

[9] = test system: Italian ryegrass (Lolium mutiflorum); assay: Test C postemergence, visual plant response rating
Outline: as §2

[10] = test system: corn (Zea mays); assay: Test C postemergence, visual plant response rating
Outline: as §2

[11] = test system: wheat (Triticum aestivum); assay: Test C postemergence, visual plant response rating
Outline: as §2

[12] = test system: kochia (Bassia scoparia); assay: Test C postemergence, visual plant response rating
Outline: as §2

[13] = test system: foxtail, giant (giant foxtail, Setaria faberi); assay: Test C postemergence, visual plant response rating
Outline: as §2

[14] = test system: ragweed (common ragweed, Ambrosia artemisiifolia); assay: Test C postemergence, visual plant response rating
Outline: as §2

[15] = test system: barnyardgrass (Echinochloa crus-galli); assay: Test C preemergence, visual plant response rating
Outline: as §2

[16] = test system: pigweed (Amaranthus retroflexus); assay: Test C preemergence, visual plant response rating
Outline: as §2

[17] = test system: Italian ryegrass (Lolium mutiflorum); assay: Test C preemergence, visual plant response rating
Outline: as §2

[18] = test system: kochia (Bassia scoparia); assay: Test C preemergence, visual plant response rating
Outline: as §2

[19] = test system: foxtail, giant (giant foxtail, Setaria faberi); assay: Test C preemergence, visual plant response rating
Outline: as §2

[20] = test system: ragweed (common ragweed, Ambrosia artemisiifolia); assay: Test C preemergence, visual plant response rating
Outline: as §2

[21] = Test C, postemergence, 125 g ai/ha
[22] = Test C, 31 g ai/ha, 0 is no effect, 100 is complete control
[23] = Test C, postemergence, 1000 g ai/ha
[24] = Test C, 125 g ai/ha, 0 is no effect, 100 is complete control

| Compound | Plant response rating, Sedge, Umbrella (Flood) [1] | Plant response rating, Barnyardgrass (Flood) [2] | Plant response rating, Ducksalad (Flood) [3] | Plant response rating, Rice (Flood) [4] | Barnyardgrass plant response rating (0 to 100 scale) ([5]; Postemergence, 31 g ai/ha) | Barnyardgrass plant response rating (0 to 100 scale) [5, 21] | Galium plant response rating (0 to 100 scale) ([6]; Postemergence, 31 g ai/ha) | Galium plant response rating (0 to 100 scale) [6, 21] | Pigweed plant response rating (0 to 100 scale) ([7]; Postemergence, 31 g ai/ha) | Pigweed plant response rating (0 to 100 scale) [7, 21] | Blackgrass plant response rating (0 to 100 scale) ([8]; Postemergence, 31 g ai/ha) | Blackgrass plant response rating (0 to 100 scale) [8, 21] | Ryegrass, Italian plant response rating (0 to 100 scale) ([9]; Postemergence, 31 g ai/ha) | Ryegrass, Italian plant response rating (0 to 100 scale) [9, 21] | Corn plant response rating (0 to 100 scale) ([10]; Postemergence, 31 g ai/ha) | Corn plant response rating (0 to 100 scale) [10, 21] | Wheat plant response rating (0 to 100 scale) ([11]; Postemergence, 31 g ai/ha) | Wheat plant response rating (0 to 100 scale) [11, 21] | Kochia plant response rating (0 to 100 scale) ([12]; Postemergence, 31 g ai/ha) | Kochia plant response rating (0 to 100 scale) [12, 21] | further results |
| --- | --- | --- | --- | --- | --- | --- | --- | --- | --- | --- | --- | --- | --- | --- | --- | --- | --- | --- | --- | --- | --- |
| C#CCO/N=C(\c1ccc(F)c(Br)c1)c1c(O)c(C)nn(C)c1=O [Compound 164] | 0 | 0 | 0 | 0 | 30 | 60 | 60 | 70 | 50 | 70 | 30 | 50 | 0 | 70 | 10 | 30 | 20 | 80 | 30 | 70 | Foxtail, Giant plant response rating (0 to 100 scale) ([13]; Postemergence, 31 g ai/ha): 10; Foxtail, Giant plant response rating (0 to 100 scale) [13, 21]: 70; Ragweed plant response rating (0 to 100 scale) ([14]; Postemergence, 31 g ai/ha): 20; Ragweed plant response rating (0 to 100 scale) [14, 21]: 50; Barnyardgrass plant response rating (0 to 100 scale) ([15]; 125 g ai/ha): 50; Barnyardgrass plant response rating (0 to 100 scale) [15, 22]: 0; Pigweed plant response rating (0 to 100 scale) ([16]; 125 g ai/ha): 90; Pigweed plant response rating (0 to 100 scale) [16, 22]: 70; Ryegrass, Italian plant response rating (0 to 100 scale) ([17]; 125 g ai/ha): 30; Ryegrass, Italian plant response rating (0 to 100 scale) [17, 22]: 0; Kochia plant response rating (0 to 100 scale) ([18]; 125 g ai/ha): 50; Kochia plant response rating (0 to 100 scale) [18, 22]: 0; Foxtail, Giant plant response rating (0 to 100 scale) ([19]; 125 g ai/ha): 50; Foxtail, Giant plant response rating (0 to 100 scale) [19, 22]: 10; Ragweed plant response rating (0 to 100 scale) ([20]; 125 g ai/ha): 30; Ragweed plant response rating (0 to 100 scale) [20, 22]: 0 |
| CC(C)O/N=C(\c1c(O)cnn(C)c1=O)c1cccc2ccccc12 [Compound 222] | 0 | 0 | 0 | 0 | – | – | – | – | – | – | – | – | – | – | – | – | – | – | – | – | Barnyardgrass plant response rating (0 to 100 scale) [5, 23]: 10; Galium plant response rating (0 to 100 scale) [6, 23]: 90; Pigweed plant response rating (0 to 100 scale) [7, 23]: 90; Blackgrass plant response rating (0 to 100 scale) [8, 23]: 0; Ryegrass, Italian plant response rating (0 to 100 scale) [9, 23]: 0; Corn plant response rating (0 to 100 scale) [10, 23]: 0; Wheat plant response rating (0 to 100 scale) [11, 23]: 0; Kochia plant response rating (0 to 100 scale) [12, 23]: 0; Foxtail, Giant plant response rating (0 to 100 scale) [13, 23]: 20; Ragweed plant response rating (0 to 100 scale) [14, 23]: 50; Barnyardgrass plant response rating (0 to 100 scale) ([15]; 1000 g ai/ha): 0; Pigweed plant response rating (0 to 100 scale) ([16]; 1000 g ai/ha): 100; Ryegrass, Italian plant response rating (0 to 100 scale) ([17]; 1000 g ai/ha): 0; Kochia plant response rating (0 to 100 scale) ([18]; 1000 g ai/ha): 0; Foxtail, Giant plant response rating (0 to 100 scale) ([19]; 1000 g ai/ha): 50; Ragweed plant response rating (0 to 100 scale) ([20]; 1000 g ai/ha): 50 |
| CCO/N=C(/c1c(O)cnn(C)c1=O)c1ccc(F)c2ccccc12 [Compound 270] | 0 | 0 | 0 | 0 | 0 | 0 | 50 | 80 | 80 | 50 | 0 | 30 | 0 | 10 | 0 | 0 | 0 | 0 | 20 | 30 | Foxtail, Giant plant response rating (0 to 100 scale) ([13]; Postemergence, 31 g ai/ha): 0; Foxtail, Giant plant response rating (0 to 100 scale) [13, 21]: 10; Ragweed plant response rating (0 to 100 scale) ([14]; Postemergence, 31 g ai/ha): 20; Ragweed plant response rating (0 to 100 scale) [14, 21]: 70; Barnyardgrass plant response rating (0 to 100 scale) [15, 22]: 0; Barnyardgrass plant response rating (0 to 100 scale) [15, 24]: 0; Pigweed plant response rating (0 to 100 scale) [16, 22]: 0; Pigweed plant response rating (0 to 100 scale) [16, 24]: 0; Ryegrass, Italian plant response rating (0 to 100 scale) [17, 22]: 0; Ryegrass, Italian plant response rating (0 to 100 scale) [17, 24]: 10; Kochia plant response rating (0 to 100 scale) [18, 22]: 0; Kochia plant response rating (0 to 100 scale) [18, 24]: 0; Foxtail, Giant plant response rating (0 to 100 scale) [19, 22]: 0; Foxtail, Giant plant response rating (0 to 100 scale) [19, 24]: 20; Ragweed plant response rating (0 to 100 scale) [20, 22]: 0; Ragweed plant response rating (0 to 100 scale) [20, 24]: 10 |
| C#CCON=C(c1ccc(Cl)c(Cl)c1)c1c(O)c(C)nn(C)c1=O [Compound 178] | 0 | 0 | 0 | 0 | 20 | 50 | 40 | 80 | 20 | 40 | 0 | 30 | 20 | 90 | 0 | 10 | 0 | 80 | 40 | 70 | Foxtail, Giant plant response rating (0 to 100 scale) ([13]; Postemergence, 31 g ai/ha): 10; Foxtail, Giant plant response rating (0 to 100 scale) [13, 21]: 30; Ragweed plant response rating (0 to 100 scale) ([14]; Postemergence, 31 g ai/ha): 0; Ragweed plant response rating (0 to 100 scale) [14, 21]: 40; Barnyardgrass plant response rating (0 to 100 scale) ([15]; 125 g ai/ha): 50; Barnyardgrass plant response rating (0 to 100 scale) [15, 22]: 30; Pigweed plant response rating (0 to 100 scale) ([16]; 125 g ai/ha): 70; Pigweed plant response rating (0 to 100 scale) [16, 22]: 20; Ryegrass, Italian plant response rating (0 to 100 scale) ([17]; 125 g ai/ha): 70; Ryegrass, Italian plant response rating (0 to 100 scale) [17, 22]: 0; Kochia plant response rating (0 to 100 scale) ([18]; 125 g ai/ha): 0; Kochia plant response rating (0 to 100 scale) [18, 22]: 0; Foxtail, Giant plant response rating (0 to 100 scale) ([19]; 125 g ai/ha): 60; Foxtail, Giant plant response rating (0 to 100 scale) [19, 22]: 10; Ragweed plant response rating (0 to 100 scale) ([20]; 125 g ai/ha): 40; Ragweed plant response rating (0 to 100 scale) [20, 22]: 0 |
